Laboratory results from PubChem BioAssay AID1648 (Sanford-Burnham Center for Chemical Genomics, 2009).
The source made the active and inactive calls. How the calls were made is not given here.

biological target: Serine/threonine-protein kinase mTOR (Homo sapiens) (UniProt P42345); experiment: mTOR FRB domain ligand binding – biophysical, NMR (AID 1648); conditions: NMR binding to FRB domain, chemical shift
Sequence (P42345 2015-2114): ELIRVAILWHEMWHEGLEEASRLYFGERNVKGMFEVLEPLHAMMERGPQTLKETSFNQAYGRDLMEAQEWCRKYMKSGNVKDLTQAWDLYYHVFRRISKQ

| Structure (SMILES) | Kd |
| --- | --- |
| C/C=C(/C)C(=O)O[C@@H]1[C@H](OC(C)=O)[C@@]2(CO)C(CC1(C)C)C1=CCC3[C@@]4(C)CC[C@H](O[C@@H]5O[C@H](C(=O)O)[C@@H](O[C@@H]6O[C@H](CO)[C@@H](O)[C@H](O)[C@H]6O)[C@H](O)[C@H]5O[C@@H]5O[C@H](CO)[C@@H](O)[C@H](O)[C@H]5O)[C@](C)(CO)C4CC[C@@]3(C)[C@]1(C)C[C@H]2O (some centres not stated) | > 4 mM (inactive) |
| O=C(Nc1nc2c(s1)CCCC2)c1cccnc1 | > 4 mM (inactive) |
| CCOC(=O)CSc1nnc(C)c(=O)[nH]1 | > 4 mM (inactive) |
| COc1ccccc1NC(=O)C1CCCCC1 | > 4 mM (inactive) |
| COc1cc(/C=C2\SC(=S)NC2=O)ccc1O | > 4 mM (inactive) |
| COc1ccccc1NC(=O)NC(N)=O | > 4 mM (inactive) |
| O=S1(=O)NC(=NCc2ccccc2)c2ccccc21 | > 4 mM (inactive) |
| Cc1cc(SCC(=O)Nc2nccs2)nc(=O)[nH]1 | > 4 mM (inactive) |
| COC(=O)c1cc(-c2c(C)nn(-c3ccccc3)c2C)n[nH]1 | > 4 mM (inactive) |
| NC(=O)C1CCN(C(=O)c2ccccc2F)CC1 | > 4 mM (inactive) |
| COc1ccc(N2C(=O)CCC2=O)c(OC)c1 | > 4 mM (inactive) |
| CCC(=O)Nc1ccc(-c2nn3c(C)nnc3s2)cc1 | > 4 mM (inactive) |
| COc1cc(-c2coc3cc(OCc4ccccc4)c(OC)c(O)c3c2=O)cc(O)c1OC | > 4 mM (inactive) |
| C[C@@H]1O[C@@H](O[C@H]2[C@H](Oc3cc(O)c4c(=O)cc(-c5ccc(O)cc5)oc4c3)O[C@H](CO)[C@@H](O)[C@@H]2O)[C@H](O)[C@H](O)[C@H]1O | > 4 mM (inactive) |
| O=C(Nc1nnc(C(F)(F)F)s1)c1cccnc1 | > 4 mM (inactive) |
| C=C(C)C1Cc2c(ccc(C(=O)O)c2O)O1 (configuration not stated) | > 4 mM (inactive) |
| O=c1cc(-c2ccccc2)oc2cc(O)cc(O)c12 | > 4 mM (inactive) |
| O=C(O)CNC(=O)c1ccccc1Cl | > 4 mM (inactive) |
| Nc1c(C(=O)O)sc2ncccc12 | > 4 mM (inactive) |

| Structure (SMILES) | Kd |
| --- | --- |
| O=C(c1nc2ncccn2n1)N1CCc2ccccc2C1 | > 4 mM (inactive) |
| COc1cc([C@@H]2c3cc4c(cc3C(OC3O[C@@H]5COC(C)O[C@H]5[C@H](O)[C@H]3O)C3COC(=O)[C@@H]32)OCO4)cc(OC)c1O (some centres not stated) | > 4 mM (inactive) |
| O=c1[nH]nc(Cc2ccccn2)c2ccccc12 | > 4 mM (inactive) |
| NC1=C([N+](=O)[O-])C(=O)c2ccccc21 | > 4 mM (inactive) |
| O=C(Nc1ccc(N2CCCC2=O)cc1)c1cccc(F)c1 | > 4 mM (inactive) |
| CC(C)=CC(=O)Nc1ccc2c(c1)OCO2 | > 4 mM (inactive) |
| O=c1ccc2cc(O)c(O)cc2o1 | > 4 mM (inactive) |
| CC1(C)CCC(C)(C)c2cc(C(=O)O)ccc21 | > 4 mM (inactive) |
| Cc1cc(NC(=O)c2cccc(N3C(=O)CCC3=O)c2)no1 | > 4 mM (inactive) |
| NC(=O)c1cc2c(n(-c3ccccc3)c1=O)CCCC2=O | > 4 mM (inactive) |
| CNC(=S)Nc1ccc(OC)cc1C | > 4 mM (inactive) |
| CN(C)N1C(=O)c2ccccc2C1=O | > 4 mM (inactive) |
| CSc1nc(=O)[nH]c2c1CCC2 | > 4 mM (inactive) |
| O=C(O)C1CSC(c2cc3ccccc3nc2Cl)N1 (configuration not stated) | > 4 mM (inactive) |
| Cc1cc(-c2ccccc2)nc2cc(C(N)=O)nn12 | > 4 mM (inactive) |
| Cc1ccc(NC(=O)N2CCC(C(N)=O)CC2)cc1 | > 4 mM (inactive) |
| Cn1c(=O)[nH]c(=O)c2nsnc21 | > 4 mM (inactive) |
| CC(=O)Nc1ccc(N(C)C(C)=O)cc1 | > 4 mM (inactive) |
| CCOC(=O)C1CCN(c2ccc(C#N)cc2)CC1 | > 4 mM (inactive) |

| Structure (SMILES) | Kd |
| --- | --- |
| O=C(O)c1csc(-c2ccccc2)n1 | > 4 mM (inactive) |
| CC(O)C(=O)N/N=C/c1cccs1 (configuration not stated) | > 4 mM (inactive) |
| OCC1CNc2ccccc2O1 (configuration not stated) | > 4 mM (inactive) |
| Nc1ncnc2c1ncn2C1C[C@H](O)[C@@H](CO)O1 (some centres not stated) | > 4 mM (inactive) |
| O=C(O)CC[N+](=O)[O-] | > 4 mM (inactive) |
| CSc1nnc2ccc(-c3cccnc3)nn12 | > 4 mM (inactive) |
| O=C1CSC2=NCCCN12 | > 4 mM (inactive) |
| O=C1N/C(=N\c2ccccn2)SC1Cc1ccccc1 (configuration not stated) | > 4 mM (inactive) |
| CCN1CC2(C)CC[C@H](OC)[C@]34C2[C@H](O)C2(OCO[C@@]25C[C@H](OC)[C@H]2C[C@]3(O)C5[C@H]2O)C14 | > 4 mM (inactive) |
| Cc1ccc(-n2[nH]c(C)cc2=O)cc1 | > 4 mM (inactive) |
| COc1ccc2c(c1OC)OC[C@@H](c1ccc(OC)c(OC)c1OC)C2 | > 4 mM (inactive) |
| N#Cc1cccc(Cn2nnc(-c3ccccc3)n2)c1 | > 4 mM (inactive) |
| O=C1CSC(=Nc2ccc(F)cc2)N1 | > 4 mM (inactive) |
| COc1cc2c3cc1Oc1cc(ccc1O)C[C@@H]1c4c(cc(OC)c(O)c4Oc4ccc(cc4)C[C@@H]3N(C)CC2)CC[N+]1(C)C | > 4 mM (inactive) |
| O=C(Nc1cccc2ncccc12)c1cccnc1 | > 4 mM (inactive) |
| COc1ccc(S(N)(=O)=O)cc1 | > 4 mM (inactive) |
| CCOC(=O)c1sc(SC)c2c1CCCC2O (configuration not stated) | > 4 mM (inactive) |
| O=C(O)Cc1noc2ccccc12 | > 4 mM (inactive) |
| Cc1cc2ncn(S(=O)(=O)N3CCOCC3)c2cc1C | > 4 mM (inactive) |
